Consider ten compounds from patent publication US7566708B2, “Substituted pyrazolo{3,4-D}pyrimidines as p38 map kinase inhibitors” (Roche Palo Alto LLC, priority 2005, dated 2009).

One data set addresses T1, p38 MAP kinase (Homo sapiens, UniProt Q16539).
T1 construct: made in house; host or cells: E. coli (co-expressed with SEK-1 and MEKK to obtain the phosphorylated form)
The data set can be described thus: p38 (MAP) kinase in vitro assay. Format: biochemical. Conditions: transfer of γ-33P from ATP to Myelin Basic Protein by phosphorylated recombinant p38 MAP kinase. As to the method: This example illustrates a p38 (MAP) kinase in vitro assay useful for evaluating the compounds of the invention.
The p38 MAP kinase inhibitory activity of compounds of this invention in vitro was determined by measuring the transfer of the γ-phosphate from γ-^33P-ATP by p-38 kinase to Myelin Basic Protein (MBP), using a minor modification of the method described in Ahn, et al., J. Biol. Chem. 266:4220-4227 (1991). […] The phosphorylated form of the recombinant p38 MAP kinase was co-expressed with SEK-1 and MEKK in E. Coli (see, Khokhlatchev, et al., J. Biol. Chem. 272:11057-11062 (1997)) and then purified by affinity chromatography using a Nickel column.
The phosphorylated p38 MAP kinase was diluted in kinase buffer (20 mM 3-(N-morpholino)propanesulfonic acid, pH 7.2, 25 mM β-glycerol phosphate, 5 mM ethylene glycol-bis(beta-aminoethyl ether)-N,N,N′,N′-tetraacetic acid, 1 mM sodium or tho-vanadate, 1 mM dithiothreitol, 40 mM magnesium chloride). Test compound dissolved in DMSO or only DMSO (control) was added and the samples were incubated for 10 min at 30° C. The kinase reaction was initiated by the addition of a substrate cocktail containing MBP and γ-^33P-ATP. […] The phosphorylated MBP was then separated from the residual γ-^33P-ATP using a phosphocellulose membrane (Millipore, Bedfrod, Mass.) and quantitated using a scintillation counter (Packard, Meriden, Conn.).

Molecules are shown by their SMILES.

T1 sequence (Q16539 whole entry): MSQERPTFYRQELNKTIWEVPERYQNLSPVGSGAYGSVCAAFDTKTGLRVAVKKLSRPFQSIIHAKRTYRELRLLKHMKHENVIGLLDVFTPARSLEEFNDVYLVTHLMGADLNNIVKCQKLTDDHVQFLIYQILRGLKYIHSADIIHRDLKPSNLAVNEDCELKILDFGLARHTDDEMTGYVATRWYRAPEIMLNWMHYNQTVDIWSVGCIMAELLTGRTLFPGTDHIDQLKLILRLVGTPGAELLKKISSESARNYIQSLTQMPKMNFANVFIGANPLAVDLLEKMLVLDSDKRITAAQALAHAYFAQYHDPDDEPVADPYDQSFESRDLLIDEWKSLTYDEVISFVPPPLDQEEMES

Consider `Fc1ccc(Oc2ncc3c(-c4ccccc4Cl)n[nH]c3n2)c(F)c1` [Example 1, 3-(2-chlorophenyl)-6-(2,4-difluoro-phenoxy)-1H-pyrazolo[3,4-d]pyrimidine], for which the melting point (commonly the temperature of the solid-liquid transition) was in the range of 173.4 to 176.4 °C.

`COc1ccccc1-c1n[nH]c2cc(Oc3ccc(F)cc3F)cnc12` [Example 8, 6-(2,4-Difluoro-phenoxy)-3-(2-methoxy-phenyl)-1H-pyrazolo[4,3-b]pyridine] returned a melting point of 143.2 to 144.9 °C.

The compound `OC[C@H](O)COc1nc(Oc2ccc(F)cc2F)nc2[nH]nc(-c3ccccc3Cl)c12` [Example 20, (S)-3-[3-(2-Chloro-phenyl)-6-(2,4-difluoro-phenoxy)-1H-pyrazolo[3,4-d]pyrimidin-4-yloxy]-propane-1,2-diol] had a melting point of 179.2 to 181.3 °C.

On to `C[C@H](O)CNc1nc(Oc2ccc(F)cc2F)cc2[nH]nc(-c3ccccc3Cl)c12` [Example 24, (S)-1-[3-(2-Chloro-phenyl)-6-(2,4-difluoro-phenoxy)-1H-pyrazolo[4,3-c]pyridin-4-ylamino]-propan-2-ol], for which the melting point lay in the range of 171.2 to 172 °C.

`Fc1ccccc1Nc1ncc2c(-c3ccccc3Cl)n[nH]c2n1` [Example 2, [3-(2-chlorophenyl)-1H-pyrazolo[3,4-d]pyrimidin-6-yl]-(2-fluorophenyl)amine]: the melting point was in the range of 230.2 to 232.4 °C.

Regarding `CC(C)(O)CNc1nc(Oc2ccc(F)cc2F)cc2[nH]nc(-c3cc(F)ccc3F)c12` [Compound 45, 1-[6-(2,4-Difluoro-phenoxy)-3-(2,5-difluoro-phenyl)-1H-pyrazolo[4,3-c]pyridin-4-ylamino]-2-methyl-propan-2-ol], the IC50 – broadly, the point on the concentration scale where inhibition reaches its midpoint – at p38 MAP kinase was about 1 nM.

Take `C[C@H](O)CNc1nc(Oc2ccc(F)cc2F)nc2[nH]nc(-c3ccccc3Cl)c12` [Example 16, (S)-1-[3-(2-chlorophenyl)-6-(2,4-difluorophenoxy)-1H-pyrazolo[3,4-d]pyrimidin-4-ylamino]propan-2-ol]: the melting point was in the range of 254.6 to 258.2 °C.

In turn, `Fc1ccc(Oc2cnc3c(-c4ccccc4Cl)n[nH]c3n2)c(F)c1` [Example 5, 3-(2-chlorophenyl)-6-(2,4-difluorophenoxy)-1H-pyrazolo[3,4-b]pyrazine] displayed a melting point of 240.5 to 241.5 °C.

`Fc1ccc(Sc2ncc3c(-c4ccccc4Cl)n[nH]c3n2)c(F)c1` [Example 3, 3-(2-chlorophenyl)-6-(2,4-difluorophenylsulfanyl)-1H-pyrazolo[3,4-d]pyrimidine]: the melting point was 177.6 to 183.2 °C.

For the compound `Clc1ccccc1Oc1ncc2c(-c3cccs3)n[nH]c2n1` [Example 14, 6-(2-Chloro-phenoxy)-3-thiophen-2-yl-1H-pyrazolo[3,4-d]pyrimidine], the melting point lay within 221.3 to 223.1 °C.
